Test results taken from US20200024278A1, “COMPOSITION COMPRISING ANTIBIOTIC COMPOUND AND AN HETEROCYCLIC COMPOUND AND THEIR USE IN PREVENTING OR TREATING BACTERIAL INFECTIONS” (MUTABILIS, priority 2016, published 2020).
Like-named read-outs stand apart in the source and are kept apart here.

Legend:
Assay in all cases: MIC, broth microdilution (CLSI), substance alone or ATB combined with compound at 4 or 8 μg/mL
[1] = tested on: ECL P99; format: cell-based, E. cloacae; details: ECL P99; for MIC ATB combined with compound: compound @8 μg/ml
Method in brief: (§1)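 Each strain received 5·10^5 CFU/mL of log-phase cells in ca-MHB over DMSO-spotted compound or compound-antibiotic combinations. After 16-20 h at 35° C, growth was scored visually.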

[2] = tested on: ABA UFR154; format: cell-based, A. baumannii
Method in brief: as §1

[3] = tested on: ABA UFR152; format: cell-based, A. baumannii
Method in brief: as §1

[4] = tested on: SAU 29213; format: cell-based, S. aureus; details: for MIC ATB combined with compound: compound @8 μg/ml
Method in brief: as §1

[5] = tested on: SPN 49619; format: cell-based, S. pneumoniae; details: SPN 49619; for MIC ATB combined with compound: compound @8 μg/ml
Method in brief: as §1

[6] = tested on: ECO 190317; format: cell-based, E. coli; details: ECO 190317; for MIC ATB combined with compound: compound @8 μg/ml
Method in brief: as §1

[7] = tested on: ECO UFR39; format: cell-based, E. coli; details: ECO UFR39; for MIC ATB combined with compound: compound @8 μg/ml
Method in brief: as §1

[8] = tested on: PAE UFR48; format: cell-based, P. aeruginosa; details: PAE UFR48; for MIC ATB combined with compound: compound @8 μg/ml
Method in brief: as §1

[9] = tested on: PAE 105250; format: cell-based, P. aeruginosa; details: PAE 105250; for MIC ATB combined with compound: compound @8 μg/ml
Method in brief: as §1

[10] = tested on: PAE UFR90; format: cell-based, P. aeruginosa; details: PAE UFR90; for MIC ATB combined with compound: compound @8 μg/ml
Method in brief: as §1

[11] = tested on: KPN BAA-1898; format: cell-based, K. pneumoniae; details: KPN BAA-1898; for MIC ATB combined with compound: compound @8 μg/ml
Method in brief: as §1

[12] = tested on: KPN 6299; format: cell-based, K. pneumoniae; details: for MIC ATB combined with compound: compound @8 μg/ml
Method in brief: as §1

[13] = tested on: KPN UFR42; format: cell-based, K. pneumoniae; details: KPN UFR42; for MIC ATB combined with compound: compound @8 μg/ml
Method in brief: as §1

[14] = Acinetobacter baumannii, antibiotic alone, read-out: MIC ATB alone
[15] = Escherichia coli, antibiotic alone, read-out: MIC ATB alone
[16] = Pseudomonas aeruginosa, antibiotic alone, read-out: MIC ATB alone
[17] = Pseudomonas aeruginosa, substance alone, read-out: MIC
[18] = Klebsiella pneumoniae, antibiotic alone, read-out: MIC ATB alone

O=C(O)C(F)(F)F.O=C1N2C[C@H](c3scnc3[C@H]2c2ncc[nH]2)N1OS(=O)(=O)[O-].[Na+] (relative stereo) [Example 6, sodium and 2,2,2-trifluoroacetate [trans-7-(1H-imidazol-3-ium--2-yl)-9-oxo-3-thia-5,8,10-triaza-tricyclo[6.2.1.0^2,6]undeca-2(6),4-dien-10-yl]sulfate]
16 µg/mL: MIC ([5]; substance alone)
0.063 µg/mL: MIC ATB combined with compound ([4]; ATB PIP, SAU 29213)
<0.031 µg/mL: MIC ATB combined with compound ([1]; ATB ATM) | MIC ATB combined with compound ([1]; ATB FEP) | MIC ATB combined with compound ([1]; ATB MEM) | MIC ATB combined with compound ([1]; ATB PIP) | MIC ATB combined with compound ([5]; ATB ATM) | MIC ATB combined with compound ([5]; ATB FEP) | MIC ATB combined with compound ([5]; ATB MEM) | MIC ATB combined with compound ([5]; ATB PIP) | MIC ATB combined with compound ([6]; ATB ATM) | MIC ATB combined with compound ([6]; ATB FEP) | MIC ATB combined with compound ([6]; ATB MEM) | MIC ATB combined with compound ([6]; ATB PIP) | MIC ATB combined with compound ([7]; ATB ATM) | MIC ATB combined with compound ([7]; ATB FEP) | MIC ATB combined with compound ([7]; ATB MEM) | MIC ATB combined with compound ([7]; ATB PIP) | MIC ATB combined with compound ([11]; ATB ATM) | MIC ATB combined with compound ([11]; ATB FEP) | MIC ATB combined with compound ([11]; ATB MEM) | MIC ATB combined with compound ([11]; ATB PIP) | MIC ATB combined with compound ([12]; ATB ATM) | MIC ATB combined with compound ([12]; ATB FEP) | MIC ATB combined with compound ([12]; ATB MEM) | MIC ATB combined with compound ([12]; ATB PIP) | MIC ATB combined with compound ([13]; ATB ATM) | MIC ATB combined with compound ([13]; ATB FEP) | MIC ATB combined with compound ([13]; ATB MEM)
4 µg/mL: MIC ([1]; substance alone) | MIC ATB combined with compound ([8]; ATB MEM) | MIC ATB combined with compound ([9]; ATB ATM) | MIC ATB combined with compound ([10]; ATB FEP) | MIC ([11]; substance alone) | MIC ([13]; substance alone)
1 µg/mL: MIC ([6]; substance alone) | MIC ATB combined with compound ([10]; ATB MEM)
<0.125 µg/mL: MIC ATB combined with compound ([1]; ATB FOS) | MIC ATB combined with compound ([5]; ATB FOS) | MIC ATB combined with compound ([6]; ATB FOS) | MIC ATB combined with compound ([7]; ATB FOS) | MIC ATB combined with compound ([13]; ATB FOS)
8 µg/mL: MIC ATB combined with compound ([8]; ATB ATM) | MIC ATB combined with compound ([9]; ATB FEP) | MIC ATB combined with compound ([10]; ATB ATM) | MIC ATB combined with compound ([10]; ATB FOS)
2 µg/mL: MIC ([7]; substance alone) | MIC ATB combined with compound ([9]; ATB MEM)
128 µg/mL: MIC ATB combined with compound ([9]; ATB FOS)
>32 µg/mL: MIC ATB combined with compound ([4]; ATB ATM, SAU 29213) | MIC ([4]; substance alone, SAU 29213 (MSSA 29213)) | MIC ATB combined with compound ([8]; ATB PIP) | MIC ([8]; substance alone) | MIC ATB combined with compound ([9]; ATB PIP) | MIC ([9]; substance alone) | MIC ATB combined with compound ([10]; ATB PIP) | MIC ([10]; substance alone)
<=0.125 μg/mL: MIC ATB combined with compound ([4]; ATB FOS, SAU 29213) | MIC ATB combined with compound ([11]; ATB FOS)
0.25 µg/mL: MIC ATB combined with compound ([12]; ATB FOS)
32 µg/mL: MIC ([2]; substance alone) | MIC ([3]; substance alone) | MIC ATB combined with compound ([8]; ATB FEP) | MIC ATB combined with compound ([8]; ATB FOS)
<=0.031 μg/mL: MIC ATB combined with compound ([4]; ATB FEP, SAU 29213) | MIC ATB combined with compound ([4]; ATB MEM, SAU 29213) | MIC ATB combined with compound ([13]; ATB PIP)

CO/N=C(\C(=O)N[C@@H]1C(=O)N2C(C(=O)[O-])=C(C[N+]3(C)CCCC3)CS[C@H]12)c1csc(N)n1 [FEP, Cefepime]
128 µg/mL: MIC [12, 18] | MIC [13, 18]
1 µg/mL: MIC ATB combined with Example 3 @8 μg/ml ([2]; with Example 3 @8 μg/ml) | MIC ATB combined with Example 6 @8 μg/ml ([2]; with Example 6 @8 μg/ml) | MIC ATB combined with Example 9 @4 μg/ml ([2]; with Example 9 @4 μg/ml) | MIC ATB combined with Example 11 @8 μg/ml ([2]; with Example 11 @8 μg/ml) | MIC ATB combined with Example 12 @8 μg/ml ([2]; with Example 12 @8 μg/ml)
2 µg/mL: MIC ([1]; Enterobacter cloacae, antibiotic alone, read-out: MIC ATB alone) | MIC ([1]; Enterobacter cloacae, substance alone, read-out: MIC) | MIC [2, 14] | MIC ATB combined with Example 1 @8 μg/ml ([2]; with Example 1 @8 μg/ml) | MIC ATB combined with Example 15 @4 μg/ml ([2]; with Example 15 @4 μg/ml)
512 µg/mL: MIC [6, 15]
4 µg/mL: MIC ([4]; Staphylococcus aureus, antibiotic alone, SAU 29213, read-out: MIC ATB alone) | MIC ([4]; Staphylococcus aureus, substance alone, SAU 29213 (MSSA 29213), read-out: MIC)
64 µg/mL: MIC [8, 16] | MIC [8, 17] | MIC ([11]; Klebsiella pneumoniae, BAA1898, antibiotic alone, read-out: MIC ATB alone) | MIC ([11]; Klebsiella pneumoniae, BAA1898, substance alone, read-out: MIC)
> 128 µg/mL: MIC [7, 15]
0.5 µg/mL: MIC ATB combined with Example 10 @8 μg/ml ([2]; with Example 10 @8 μg/ml)
0.063 µg/mL: MIC ([5]; Streptococcus pneumoniae, antibiotic alone, read-out: MIC ATB alone) | MIC ([5]; Streptococcus pneumoniae, substance alone, read-out: MIC)
16 µg/mL: MIC [3, 14] | MIC ATB combined with Example 1 @8 μg/ml ([3]; with Example 1 @8 μg/ml) | MIC ATB combined with Example 6 @8 μg/ml ([3]; with Example 6 @8 μg/ml) | MIC ATB combined with Example 9 @4 μg/ml ([3]; with Example 9 @4 μg/ml) | MIC ATB combined with Example 11 @8 μg/ml ([3]; with Example 11 @8 μg/ml) | MIC ATB combined with Example 15 @4 μg/ml ([3]; with Example 15 @4 μg/ml) | MIC [10, 16] | MIC [10, 17]
8 µg/mL: MIC ATB combined with Example 3 @8 μg/ml ([3]; with Example 3 @8 μg/ml) | MIC ATB combined with Example 10 @8 μg/ml ([3]; with Example 10 @8 μg/ml) | MIC ATB combined with Example 12 @8 μg/ml ([3]; with Example 12 @8 μg/ml) | MIC [9, 16] | MIC [9, 17]
